Experimental findings from patent US20020156115A1, “Insecticidal and acaricidal composition, and methods of using the same” (AGRO-KANESHO CO., LTD., priority 1999, published 2002) are described below.

Assay type in all cases: in vivo
Assay [1] concerns diamond backmoth (Plutella xylostera). Briefly: Insecticidal effect on larvae of diamond backmoth (cabbage leaf dip). The note with it: 500 ppm; cabbage leaf immersed 1 minute; third-instar larvae; fourth day; 25° C. How it is done:
Insecticidal Effect on Larvae of Diamond Backmoth (Plutella xylostera) The present insecticide prepared according to the Preparation Example was diluted with water. A piece (diameter: 6 cm) of a cabbage leaf was immersed in the diluted insecticide for 1 minute. After air drying, the piece was placed in a plastic cup (inner diameter: 7 cm). 5 third-instar larvae of diamond backmoth (Plutella xylostera) were put in the cup (1 concentration, repetition: twice). The cup was kept in a constant temperature room at 25° C. On the fourth day, the survival rate and degree of writhing of the larvae were examined. The writhing larvae were each counted to be ½.

In assay [2] the test system is eggs of two-spotted red spiders (Tetranychus telarius). Briefly: Acaricidal effect on eggs of two-spotted red spiders, ovicidal rate, 500 ppm spray. The note with it: eggs on green bean leaf disc; spray 3.5 ml; concentration 500 ppm; 8 days after treatment. How it is done: Acaricidal Effect on Eggs of Two-Spotted Red Spiders (Tetranychus telarius) 5 female imagoes of two-spotted red spiders were released on a green been leaf disc (diameter: 3 cm). Then, the imagoes were left to lay eggs on the leaf disc for 20 hours and then removed therefrom. The present acaricide which had been prepared according to Preparation Example 1 was diluted with water to a predetermined concentration. 3.5 ml of the preparation thus obtained was sprayed with a rotary spraying column (Mizuho Rika) over the disc (concentration: 500 ppm, repetition: twice). 8 days after the treatment, the number of unhatched eggs was counted to determine the ovicidal rate (%).

Assay [3] deals with two-spotted red spiders (Tetranychus telarius). The assay can be described thus: Acaricidal effect on two-spotted red spiders, imago-killing rate, 500 ppm leaf immersion. The note with it: female imagoes on green bean leaf, leaf immersion about 5 seconds, concentration 500 ppm, fifth day after treatment, 25° C. How it is done: (§1) Acaricidal Effect on Larvae of Two-Spotted Red Spiders (Tetranychus telarius): A stem of green bean seedling having only one primary left was placed in a test tube (capacity: 50 ml) containing water. 15 female imagoes of two-spotted red spiders were put on each leaf. One day after, the leaf having the two-spotted red spiders was immersed (about 5 seconds) in the present insecticide diluted with water, which had been prepared according to the Preparation Example, (concentration: 500 ppm, repetition: twice). They were kept in a constant-temperature room at 25° C. On the fifth day after the treatment, the female imagoes on the leaf of the green bean seedling were observed. The imago-killing rate (%) was determined on the basis of the results of the observation to obtain the results shown in Table 6.

Assay [4] has the same test system. Briefly: Acaricidal effect of a low concentration (12.5 ppm) on two-spotted red spiders. The note with it: leaf immersion, female imagoes, fifth day after treatment, 25° C. How it is done: as §1, with “A” for “Acaricidal Effect on Larvae of Two-Spotted Red Spiders (Tetranychus telarius): A”
Acaricidal Effect of a Low Concentration of Acaricide on Larvae of Two-Spotted Red Spiders (Tetranychus telarius)
The same tests as those of Test Example 2 were repeated except that the concentration of the acaricide was changed to 12.5 ppm.

With `CO/C=C(/C(=O)OC)c1c(C#Cc2cccc(C(F)(F)F)c2)c(C)nn1C` [Table 1-2], in assay [1], the Killing rate is 60%. In addition, in assay [2], the “Ovicidal rate (%)” value was 100%. Besides, in assay [3], the “Acaricidal rate (%)” value is given as 100%.
In assay [1], `COC=C(C(=O)OC)c1c(C#Cc2ccc(C(F)(F)F)cc2)c(C)nn1C` [Table 1-3, Methyl α-{1,3-dimethyl-4-(4-trifluoromethylphenylethynyl)-5-pyrazole}-β-methoxyacrylate] showed a Killing rate of 80%. In addition, the “Ovicidal rate (%)” value in assay [2] is 100%. The same compound came in with an acaricidal effect in assay [4] of 100%. Also, in assay [3], the “Acaricidal rate (%)” value is given as 100%.
`COC=C(C(=O)OC)c1c(C#Cc2cc(C(F)(F)F)cc(C(F)(F)F)c2)c(C)nn1C` [Table 1-5, Methyl α-[1,3-dimethyl-4-{3,5-bis(trifluoromethyl)phenylethynyl}-5-pyrazole]-β-methoxyacrylate]: in assay [1], the Killing rate was found to be 100%. Further, in assay [2], the “Ovicidal rate (%)” value is listed as 100%. The same compound registered an acaricidal effect in assay [4] of 100%. For the same compound, the “Acaricidal rate (%)” value in assay [3] was 100%.
In assay [1], `CO/C=C(/C(=O)OC)c1c(C#Cc2cc(F)cc(Cl)c2)c(C)nn1C` [Table 1-7] showed a Killing rate of 80%. For the same compound, in assay [2], the “Ovicidal rate (%)” value was 100%. The compound further displayed an acaricidal effect in assay [4] of 100%. Further, the “Acaricidal rate (%)” value in assay [3] amounted to 100%.
Take `CO/C=C(/C(=O)OC)c1c(C#Cc2cc(F)cc(F)c2)c(C)nn1C` [Table 1-8]: the Killing rate in assay [1] is given as 100%. Further, the “Ovicidal rate (%)” value in assay [2] worked out at 100%. In assay [4], this compound returned an acaricidal effect of 100%. In addition, in assay [3], the “Acaricidal rate (%)” value amounted to 100%.
In assay [1], `CO/C=C(/C(=O)OC)c1c(C#Cc2ccc(Oc3ccc(C(F)(F)F)cc3)cc2)c(C)nn1C` [Table 1-10] gave a Killing rate of 100%. In assay [2], the “Ovicidal rate (%)” value is 100%. In addition, the acaricidal effect in assay [4] came out at 100%. The “Acaricidal rate (%)” value in assay [3] came to 100%.
Turning to `CO/C=C(/C(=O)OC)c1c(C#Cc2ccc(Oc3cc(C(F)(F)F)cc(C(F)(F)F)c3)cc2)c(C)nn1C` [Table 1-11], the Killing rate in assay [1] worked out at 100%. Besides, in assay [2], the “Ovicidal rate (%)” value is given as 100%. The compound also gave an acaricidal effect in assay [4] of 100%. Also, the “Acaricidal rate (%)” value in assay [3] is reported as 100%.
With `CO/C=C(/C(=O)OC)c1c(C#Cc2ccc(Oc3ccc(F)cc3Cl)cc2)c(C)nn1C` [Table 1-12], in assay [1], the Killing rate was determined as 100%. Moreover, in assay [2], the “Ovicidal rate (%)” value was found to be 100%. This compound showed an acaricidal effect in assay [4] of 100%. In assay [3], the “Acaricidal rate (%)” value was 100%.
In the case of `CO/C=C(/C(=O)OC)c1c(C#Cc2ccc(Oc3ccc(C(F)(F)F)cn3)cc2)c(C)nn1C` [Table 1-13], the Killing rate in assay [1] was determined as 100%. Further, in assay [2], the “Ovicidal rate (%)” value worked out at 100%. In assay [3], the “Acaricidal rate (%)” value turned out to be 100%.
For the compound `CCc1nn(C)c(/C(=C\OC)C(=O)OC)c1C#Cc1cc(C(F)(F)F)cc(C(F)(F)F)c1` [Table 1-14], in assay [1], the Killing rate is on record as 74%. The “Ovicidal rate (%)” value in assay [2] was 100%. Also, the acaricidal effect in assay [4] turned out to be 100%. In addition, the “Acaricidal rate (%)” value in assay [3] was 100%.
On to `CCCc1nn(C)c(/C(=C/OC)C(=O)OC)c1C#Cc1cc(C(F)(F)F)cc(C(F)(F)F)c1` [Table 1-16], for which the “Ovicidal rate (%)” value in assay [2] worked out at 100%. In assay [4], this compound showed an acaricidal effect of 100%. Moreover, in assay [3], the “Acaricidal rate (%)” value is 100%.
For the compound `CO/C=C(/C(=O)OC)c1c(C#Cc2cc(C(F)(F)F)cc(C(F)(F)F)c2)c(C(C)C)nn1C` [Table 1-17], in assay [1], the Killing rate came out at 89%. Further, the “Ovicidal rate (%)” value in assay [2] came out at 100%. The compound further displayed an acaricidal effect in assay [4] of 100%. The “Acaricidal rate (%)” value in assay [3] stood at 100%.
As to `CO/C=C(/C(=O)OC)c1c(C#Cc2cc(C(F)(F)F)cc(C(F)(F)F)c2)c(C(C)(C)C)nn1C` [Table 1-18], the “Ovicidal rate (%)” value in assay [2] is 100%. For the same compound, in assay [4], the acaricidal effect is reported as 100%. For the same compound, the “Acaricidal rate (%)” value in assay [3] is given as 100%.
Regarding `CO/C=C(/C(=O)OC)c1c(C#Cc2cc(C(F)(F)F)cc(C(F)(F)F)c2)c(-c2ccccc2)nn1C` [Table 1-19], the “Ovicidal rate (%)” value in assay [2] is 100%. The compound further displayed an acaricidal effect in assay [4] of 100%. Moreover, the “Acaricidal rate (%)” value in assay [3] turned out to be 100%.
As to `COC=C(C(=O)OC)c1c(C#Cc2cc(C(F)(F)F)cc(C(F)(F)F)c2)c(C(F)(F)F)nn1C` [Table 1-20, Methyl α-[1-methyl-3-trifluoromethyl-4{3,5-bis(trifluoromethyl)phenylethynyl}-5-pyrazole]-β-methoxyacrylate], the “Ovicidal rate (%)” value in assay [2] is reported as 100%. In addition, the acaricidal effect in assay [4] was 100%. For the same compound, the “Acaricidal rate (%)” value in assay [3] is 100%.
Turning to `CCn1nc(C)c(C#Cc2cc(C(F)(F)F)cc(C(F)(F)F)c2)c1C(=COC)C(=O)OC` [Table 1-21, Methyl α-[1-ethyl-3-methyl-4-{3,5-bis(trifluoromethyl)phenylethynyl}-5-pyrazole]-β-methoxyacrylate], the Killing rate in assay [1] is recorded as 100%. Also, the “Ovicidal rate (%)” value in assay [2] came out at 100%. Also, in assay [4], the acaricidal effect was 100%. Further, the “Acaricidal rate (%)” value in assay [3] is given as 100%.
`CCc1nn(CC)c(/C(=C\OC)C(=O)OC)c1C#Cc1cc(C(F)(F)F)cc(C(F)(F)F)c1` [Table 1-28]: the “Ovicidal rate (%)” value in assay [2] came out at 100%. The compound further returned an acaricidal effect in assay [4] of 100%. Besides, the “Acaricidal rate (%)” value in assay [3] came out at 100%.
`CO/C=C(/C(=O)OC)c1c(C#Cc2ccc(OC(F)F)cc2)c(C)nn1C` [Table 1-30]: the “Ovicidal rate (%)” value in assay [2] is 100%. The compound further returned an acaricidal effect in assay [4] of 100%. Besides, in assay [3], the “Acaricidal rate (%)” value was determined as 100%.
On to `CCn1nc(C(F)(F)F)c(C#Cc2nc(OC(C)C)cc(C(F)(F)F)n2)c1/C(=C\OC)C(=O)OC` [Table 1-37], for which the “Ovicidal rate (%)” value in assay [2] is on record as 100%. In assay [4], the acaricidal effect is reported as 100%. Also, the “Acaricidal rate (%)” value in assay [3] is on record as 100%.
With `CCn1nc(C(F)(F)F)c(C#Cc2cc(C(F)(F)F)cc(C(F)(F)F)c2)c1/C(=C\OC)C(=O)OC` [Table 1-39], the “Ovicidal rate (%)” value in assay [2] is 100%. This compound displayed an acaricidal effect in assay [4] of 100%. Also, the “Acaricidal rate (%)” value in assay [3] was 100%.
For `CCn1nc(C(F)(F)F)c(C#Cc2cc(C(F)(F)F)cc(C(F)(F)F)c2)c1/C(=C/OC)C(=O)OC` [Table 1-40], the “Ovicidal rate (%)” value in assay [2] worked out at 100%. The same compound showed an acaricidal effect in assay [4] of 100%. In addition, the “Acaricidal rate (%)” value in assay [3] is given as 100%.
Consider `CO/C=C(/C(=O)OC)c1c(OCc2cccc(Oc3ccc(C(F)(F)F)cc3)c2)c(C)nn1C` [Table 2-3], for which the Killing rate in assay [1] is 100%. Besides, the “Ovicidal rate (%)” value in assay [2] was 100%. Moreover, the “Acaricidal rate (%)” value in assay [3] was found to be 100%.
Turning to `CO/C=C(/C(=O)OC)c1c(OCc2ccc(C(C)(C)C)cc2)c(C)nn1C` [Table 2-4], in assay [1], the Killing rate is reported as 70%. Further, the “Ovicidal rate (%)” value in assay [2] is listed as 100%. For the same compound, the “Acaricidal rate (%)” value in assay [3] was 100%.
In the case of `CO/C=C(/C(=O)OC)c1c(OCc2ccc(C(F)(F)F)cc2)c(C)nn1C` [Table 2-5], the Killing rate in assay [1] came out at 90%. Moreover, the “Ovicidal rate (%)” value in assay [2] stood at 100%. The “Acaricidal rate (%)” value in assay [3] came to 100%.
Consider `CO/C=C(/C(=O)OC)c1c(OCc2cc(C(F)(F)F)cc(C(F)(F)F)c2)c(C(F)(F)F)nn1C` [Table 2-26], for which the “Ovicidal rate (%)” value in assay [2] is on record as 100%. For the same compound, the acaricidal effect in assay [4] turned out to be 100%. The “Acaricidal rate (%)” value in assay [3] was determined as 100%.
In assay [1], `CCc1nn(C)c(/C(=N\OC)C(=O)OC)c1CON=C(C)c1ccc(C(F)(F)F)cc1` [Table 3-73] yielded a Killing rate of 100%.
Compound `CCc1nn(C)c(/C(=N\OC)C(=O)OC)c1CON=C(C)c1cccc(OC(F)F)c1` [Table 3-76] yielded a Killing rate in assay [1] of 100%.
`CO/C=C(/C(=O)OC)c1c(CON=C(C)c2ccc(OC(F)(F)F)cc2)c(C)nn1C` [Table 3-101] gave a Killing rate in assay [1] of 100%. Also, the “Ovicidal rate (%)” value in assay [2] is reported as 100%. Further, in assay [3], the “Acaricidal rate (%)” value stood at 100%.
